Structures are written as SMILES.

Here are results for nine molecules from US8008023B2, “Natural ligand of G protein coupled receptor RCC356 and uses thereof” (Chemcom S.A., priority 2005, dated 2011).

The target of assay [1] is T1, RCC356 (Homo sapiens, UniProt Q8TCB6).
T1 construct: expressed in transfected cells; host or cells: Hek293 cells, transient transfection with lipofectamine 2000
T1 sequence (Q8TCB6 1-318): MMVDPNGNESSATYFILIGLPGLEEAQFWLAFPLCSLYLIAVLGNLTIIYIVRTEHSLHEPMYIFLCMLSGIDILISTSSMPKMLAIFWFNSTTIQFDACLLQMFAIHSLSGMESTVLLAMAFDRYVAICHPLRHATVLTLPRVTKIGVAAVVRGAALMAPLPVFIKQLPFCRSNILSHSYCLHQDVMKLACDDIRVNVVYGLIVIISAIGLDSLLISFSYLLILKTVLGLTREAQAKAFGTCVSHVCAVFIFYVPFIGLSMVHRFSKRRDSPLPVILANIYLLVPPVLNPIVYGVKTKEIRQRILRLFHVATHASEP
Nature of the assay: Concentration-response analysis of odorants on Hek293 cells overexpressing RCC356 polypeptide, CRE-luciferase reporter (Dual-Glo). The format is cell-based. The following applies: for EC50: 0.1 μM to 1 mM, CRE-luciferase, read-out: Ec50 of RCC356 activation. How it is done:
(§1) To further validate hits found during screenings of 80 odorants on RCC356 overexpressing-Hek293 cells, concentration-response analyses have been performed. Hek293 cells were grown in MEM supplemented with decomplemented FBS at 37° C. under 5% CO2 and 90% humidity. Two days before screening, cells were plated onto 96-well plates (PDL coated plates, Becton-Dickinson). The day after, cells were transfected with a plasmid encoding RCC356 polypeptide along with 2 plasmides encoding firefly luciferase and renilla luciferase respectively. Firefly transcription was driven by a minimum promoter including the CREB-response element (CRE), whereas renilla luciferase was driven by CMV promoter, a strong constitutive promoter. Transfection was performed using lipofectamine 2000 reagent (Invitrogen). Transfected cells were let under standard culture conditions for a further 24 hours, and then process for functional assay.
First, tested odorants (isovaleric, valeric, propionic, hexanoic, heptanoic, caprilic and pelargonic acids) were dissolved as 1M solutions in DMSO. They were then plated onto 96-well plates at different concentrations ranging from 0.1 μM to 1 mM in HBSS (Cambrex). DMSO represented thereby less than 1% (v/v) of the odorant solutions. Positive controls such as forskolin were included in odorant plates. Forskolin activates production of cAMP that in turn, through binding to CREB transcription factor triggers production of firefly luciferase, the reporter gene of the system. Detected luciferase activity in each well could be thereby expressed as a percent of forskolin response, allowing standardization thereon.
(§2) Functional assay was performed using Dual-Glo luciferase assay Kit according to manufacturer instructions (Promega).

The target in assay [2] is T1, RCC356. Description: Screening of 80 odorants on RCC356 overexpressed in Hek293 cells, CRE-luciferase reporter (Dual-Glo). The following applies: Hek293 overexpressing RCC356; for RCC356 activation in odorant screening (luciferase activity as percent of forskolin response): odorants plated as 200 μM solutions in HBSS, two independent screenings; for hit found in both independent screenings: two independent screenings of 80 odorants. It counts as cell-based. How it is done: as §1, with “Hek293” for “To further validate hits found during screenings of 80 odorants on RCC356 overexpressing-Hek293 cells, concentration-response analyses have been performed. Hek293”
Odorants were dissolved as 1M solutions in DMSO. They were then plated onto 96-well plates as 200 μM solutions in HBSS (Cambrex). DMSO represented thereby less than 1% (v/v) of the odorant solutions. Positive controls such as forskolin were included in odorant plates. Forskolin activates production of cAMP that in turn, through binding to CREB transcription factor triggers production of firefly luciferase, the reporter gene of the system. Detected luciferase activity in each well could be thereby expressed as a percent of forskolin response, allowing standardization thereon.
as §2

Regarding `C=CCCCC(=O)O` [5-hexenoic acid], the concentration giving a half-maximal response (EC50) at RCC356 [1] worked out at 485 µM.
Turning to `CCCCCCCC(=O)O` [caprilic acid, caprylic acid], the “RCC356 activation in odorant screening (luciferase activity as percent of forskolin response)” value at RCC356 [2] is listed as “seemed to lead to RCC356 activation”. The concentration for a half-maximal effect (EC50) on RCC356 [1] is 329 µM.
In the case of `CCCCCC(=O)O` [caproic acid], on RCC356 [2], the “RCC356 activation in odorant screening (luciferase activity as percent of forskolin response)” value is recorded as “seemed to lead to RCC356 activation”. Besides, the 50% effective concentration (EC50) at RCC356 [1] came to 91 µM.
Turning to `O=C(O)C1CCCCC1` [hexahydrobenzoic acid], the EC50 on RCC356 [1] came to 104 µM.
As to `CC(C)CC(=O)O` [isovaleric acid], on RCC356 [2], the “RCC356 activation in odorant screening (luciferase activity as percent of forskolin response)” value is listed as “seemed to lead to RCC356 activation” and the “hit found in both independent screenings” value was “found in both screening”. In addition, at RCC356 [1], the EC50 was determined as 25 µM. Further, the “efficiency of ligand on RCC356 activation” value on RCC356 [1] (percent of forskolin response (FIG. 3A)) is given as “most efficient ligand”.
In the case of `CCCCCCC(=O)O` [oenanthylic acid], the “RCC356 activation in odorant screening (luciferase activity as percent of forskolin response)” value on RCC356 [2] is “seemed to lead to RCC356 activation”. Further, at RCC356 [1], the EC50 came out at 260 µM.
The corresponding values for `CCCCCCCCC(=O)O` [pelargonic acid] are “seemed to lead to RCC356 activation” and 643 µM.
As to `CCC(=O)O` [propionic acid], at RCC356 [2], the “RCC356 activation in odorant screening (luciferase activity as percent of forskolin response)” value is reported as “seemed to lead to RCC356 activation”.
In the case of `CCCCC(=O)O` [valeric acid], at RCC356 [2], the “RCC356 activation in odorant screening (luciferase activity as percent of forskolin response)” value is listed as “seemed to lead to RCC356 activation” and the “hit found in both independent screenings” value is recorded as “found in both screening”. Also, the EC50 at RCC356 [1] was determined as 97 µM.
